# Test results as given in the supplement of paper PMC4862054.
# Where “and” joins values, the source holds several entries; their conditions need not be identical. Identical values can stand only once.
# What was measured:
# Settings in all cases: incubation time: 72 h
# [1] = system: CAL-148; assay: normalised viability (% of control), CellTiter-Blue; higher = more viable cells (about 100 = DMSO control)
# Procedure: (§1)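 DSRT, CellTiter-Blue viability, 72 h incubation. Signal is normalised to DMSO and benzethonium chloride controls. Value is the normalised response at dose 7.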
# [2] = system: HDQ-P1; assay: as above
# Procedure: as §1
# [3] = system: DU-4475; assay: as above
# Procedure: as §1
# [4] = system: MDA-MB-453; assay: as above
# Procedure: as §1
# [5] = system: CAL-51; assay: as above
# Procedure: as §1
# [6] = system: CAL-85-1; assay: as above
# Procedure: as §1
# [7] = system: HCC1599; assay: normalised response (% of control), CellTiter-Glo; higher = more viable cells (100 = DMSO, 0 = benzethonium chloride kill control)
# Outline: (§2)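 Plates were normalised with 0.1 % DMSO as 100 and a positive kill control as 0. Breast cancer cell lines in 20 µl suspension had been seeded into 384-well plates with compound at 5 concentrations in 10-fold steps over a compound-specific 10,000-fold range, incubated 72 h, and read for CellTox Green fluorescence (485/520 nm) followed by CellTiter-Glo luminescence. Each value is the normalised signal at a single concentration.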
# [8] = system: CAL-148; assay: as above
# Outline: as §2
# [9] = system: BT-474; assay: as above
# Outline: as §2
# [10] = system: BT-549; assay: as above
# Outline: as §2
# [11] = system: HCC1937; assay: as above
# Outline: as §2
# [12] = system: HCC1143; assay: as above
# Outline: as §2
# [13] = system: MDA-MB-468; assay: as above
# Outline: as §2
# [14] = system: HDQ-P1; assay: as above
# Outline: as §2
# [15] = system: DU-4475; assay: as above
# Outline: as §2
# [16] = system: MDA-MB-436; assay: as above
# Outline: as §2
# [17] = system: SK-BR-3; assay: as above
# Outline: as §2
# [18] = system: Hs578T; assay: as above
# Outline: as §2
# [19] = system: MCF-10A; assay: as above
# Outline: as §2
# [20] = system: MFM-223; assay: as above
# Outline: as §2
# [21] = system: MDA-MB-453; assay: as above
# Outline: as §2
# [22] = system: CAL-51; assay: as above
# Outline: as §2
# [23] = system: MDA-MB-231; assay: as above
# Outline: as §2
# [24] = system: HCC1599; assay: as above; remark: listed apart in the source
# Outline: as §2
# [25] = system: CAL-120; assay: as above
# Outline: as §2
# [26] = system: CAL-85-1; assay: as above
# Outline: as §2
# [27] = system: CAL-148; assay: normalised viability (% of control), CellTiter-Blue; higher = more viable cells (about 100 = DMSO control); remark: listed apart in the source
# Procedure: (§3)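 DSRT, CellTiter-Blue viability, 72 h incubation. Signal is normalised to DMSO and benzethonium chloride controls. Value is the normalised response at dose 9.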
# [28] = system: DU-4475; assay: as above; remark: listed apart in the source
# Procedure: as §3
# [29] = system: MDA-MB-453; assay: as above; remark: listed apart in the source
# Procedure: as §3
Compound,normalised viability [1],normalised viability [2],normalised viability [3],normalised viability [4],normalised viability [5],normalised viability [6],normalised response [7] [%],normalised response [8] [%],normalised response [9] [%],normalised response [10] [%],normalised response [11] [%],normalised response [12] [%],normalised response [13] [%],normalised response [14] [%],normalised response [15] [%],normalised response [16] [%],normalised response [17] [%],normalised response [18] [%],normalised response [19] [%],normalised response [20] [%],normalised response [21] [%],normalised response [22] [%],normalised response [23] [%],normalised response [24] [%],normalised response [25] [%],normalised response [26] [%],normalised viability [27],normalised viability [28],normalised viability [29]
COc1ccc(S(=O)(=O)Nc2cccnc2Nc2ccc(O)cc2)cc1 [ABT-751] (1000 nM),52.5%,51.3%,66.1%,25.2%,39.7%,32.3%,43.5,–,–,–,–,–,–,–,–,–,–,–,–,–,–,–,–,–,–,–,–,–,–
CCNC(=O)CCC/C=C\C[C@@H]1[C@@H](/C=C/[C@@H](O)CCc2ccccc2)[C@H](O)C[C@@H]1O [Bimatoprost] (5500 nM),–,–,–,–,–,–,–,88.3,95,102,91.9,94.8,91.6,91.7,96.7,104,83.8,101,90.3,88.2,91.2,160,99.5,89.5,95.8,91.1,92.2%,107%,106%
CO[C@@]12[C@H](COC(N)=O)C3=C(C(=O)C(C)=C(N)C3=O)N1C[C@@H]1N[C@@H]12 [Mitomycin C] (10000 nM),–,–,–,–,–,–,–,51,69.5,15,73.3,71,22.5,84.1,69,41.7,58.4,91.1,73,86.5,85.8,5.75,82.5,57.4,88.1,57,1.89%,-0.46%,5.36%
CC(C)(C)NC(=O)[C@H]1CC[C@H]2[C@@H]3CC[C@H]4NC(=O)C=C[C@]4(C)[C@H]3CC[C@]12C [Finasteride] (1000 nM),103%,118%,113%,106%,109%,98.4%,113,–,–,–,–,–,–,–,–,–,–,–,–,–,–,–,–,–,–,–,–,–,–
Cc1cn(-c2cc(NC(=O)c3ccc(C)c(Nc4nccc(-c5cccnc5)n4)c3)cc(C(F)(F)F)c2)cn1 [Nilotinib] (10000 nM),–,–,–,–,–,–,–,98,94.7,61.2,96.8,93,101,105,102,106,99.4,97.1,99.4,97.2,102,86.3,92.9,119,103,104,89.7% and 84.6%,102% and 86.8%,106% and 94.7%
CC(O)(CS(=O)(=O)c1ccc(F)cc1)C(=O)Nc1ccc(C#N)c(C(F)(F)F)c1 (stereo unspecified) [Bicalutamide] (1000 nM),102%,91.4%,90.1%,102%,108%,91.1%,120,–,–,–,–,–,–,–,–,–,–,–,–,–,–,–,–,–,–,–,–,–,–
CO[C@@]12[C@H](COC(N)=O)C3=C(C(=O)C(C)=C(N)C3=O)N1C[C@@H]1N[C@@H]12 [Mitomycin C] (1000 nM),96.3%,88.9%,95.6%,91.4%,108%,77.2%,84.2,–,–,–,–,–,–,–,–,–,–,–,–,–,–,–,–,–,–,–,–,–,–
O=C(CCCCCCC(=O)Nc1ccccc1)NO [Vorinostat] (1000 nM),83.7% and 89.3%,80.8% and 62.8%,103% and 97.4%,51.6% and 54.1%,107% and 99.4%,84% and 86.3%,98.9,–,–,–,–,–,–,–,–,–,–,–,–,–,–,–,–,–,–,–,–,–,–
